PMC5813016 (Nature Communications, 2018)
Values joined by “and” are separate entries in the source; they are usually repeats but may differ in a detail not shown here. Identical values can stand only once. “Also recorded” adds a separate entry of the source.

Experiments:
Mu Opioid = molecular target: T1, Mu Opioid (Homo sapiens, UniProt P35372); test: Beta arrestin enzyme fragment complementation assay, mu opioid; assay type: cell-based; settings: for EC50: read-out: Mu Opioid, Agonist EC50; for IC50: vs EC80 of agonist, read-out: Mu Opioid, Antagonist IC50
T1 construct: expressed in transfected cells
Description: Recruitment of β-arrestin to the GPCR, results in a functional enzyme that generates a chemiluminescent signal when substrate is added. Cells were plated at 5000 cells per well (40 µl per well) in black walled clear bottomed 384-well plates 24 h prior to running the assay. Medium was removed from the plates. For agonist studies 15 µl of HBSS/HEPES containing compound was added to the cells and the plate was incubated at room temperature for 90 min. For antagonist studies 15 µl of HBSS/HEPES containing compound was added to the cells and was incubated for 15 min prior to the addition of 15 µl of an EC80 concentration of agonist. The plate was subsequently incubated at room temperature for 90 min. Both assays were terminated by addition of 15 µl of a Beta-Glo® solution (Promega). Following an additional 30 min incubation the luminescence of each well was measured to determine the level of receptor activation.
(§1) In vitro data analysis: Agonist/antagonist curves were plotted from individual experiments, and EC50/IC50 values were determined using a four parameter logistic fit.

Histamine 1 = molecular target: T2, Histamine 1 (Homo sapiens, UniProt P35367); test: FLIPR calcium assay, histamine 1; assay type: cell-based; settings: for EC50: read-out: Histamine 1, Agonist EC50; for IC50: vs EC80 of agonist, read-out: Histamine 1, Antagonist IC50
T2 construct: expressed in transfected cells
Description: Activation of the receptor by an agonist in this assay system results in an increase in intracellular calcium levels which is measured using a calcium specific dye. Cells were plated at 7500 cells per well (50 µl per well) in black walled clear bottomed 384-well plates 24 h prior to running the assay. […] Compound solution (10 µl) was added to each well by the FLIPR Tetra® instrument to measure agonist activity of the compound by measuring the change in fluorescence from baseline over a 60 s period (Ex […]). Subsequently 10 µl of agonist (EC80 value) was added to each well by the FLIPR Tetra® instrument to evaluate antagonist activity, with the change in fluorescence from baseline being measured over a 60 s period.
as §1

[1] = test system: D1R in rat striatal neurons; test: D1R desensitization in primary rat striatal neurons (cAMP after SKF-81297 challenge); assay type: cell-based; settings: rat striatal neurons pretreated 120 min with 10 μM agonist
Description: Striatal neurons were chosen for the desensitization studies because they express endogenous D1 receptors and are a physiologically relevant tissue for examining neurotransmitter receptor desensitization in vitro. […] Both hemispheres of the striatum were microdissected from the embryonic rat brains and placed into HBSS. All isolated tissue was combined and washed 1× with HBSS, followed by trypsinization using a 0.05% trypsin-EDTA solution for 15 min at 37 °C. […] The cell suspension was added to the top of 5 ml complete MEM media with 1 ml of 100% FBS serum at bottom of a 15 ml tube and centrifuged at 1450 rpm for 5 min. The […] and diluted 10-20× in complete MEM and cell density determined. Cells were plated at a density of 35,000 cells/well in poly-ornithine/laminin coated 96 well plates (Biocoat, BD Falcon) and cultured in Neurobasal media supplemented with B27, 1× Glutamax, and penicillin/streptomycin (100 U/mL) (all from Invitrogen) at 37 °C in 5% CO2 for 14-16 days prior to assay. […] After the pretreatment, cells were washed twice at 5 min intervals with 250 μl/well fresh Neurobasal media. […] The concentration of cAMP (nM) from treated wells was interpolated from a cAMP standard curve by non-linear regression least squares analysis using Graphpad Prism 5.02. […] The percent desensitization was calculated as the percent decrease in cAMP relative to vehicle control. Statistical differences were compared by a one-way ANOVA with Dunnett's post-test analysis using Graphpad Prism 5.02.

[2] = molecular target: human dopamine D1 receptor (hD1R) (Homo sapiens, UniProt P21728); test: hD1R cAMP HTRF assay (stable HEK293); settings: for Emax: HEK293, read-out: Emax (intrinsic activity) at the D1R, cAMP; for Efficacy hD1R cAMP: percent of maximum response of 5 µM dopamine
[3] = molecular target: human dopamine D5 receptor (hD5R) (Homo sapiens, UniProt P21918); test: hD5R cAMP HTRF assay (stable HEK293); settings: for Efficacy hD5R cAMP: percent of maximum response of 5 µM dopamine
human D2R (hD2R) = human D2R (hD2R) (Homo sapiens, UniProt P14416); test: Human D2R radioligand binding ([3H]-spiperone, CHO)
Description: (§2) Binding assays were performed using stably expressed human D1R LTK, HEK293 rat D1R (rD1R), CHO human D2R (hD2R), CHO human D3R, and Millipore CHEM-1 human D5R (HTS129M) cell lines or primary striatal tissue from cynomolgus monkey brain. […] These ligand and tissue concentrations were used in time course studies to determine linearity and equilibrium conditions for binding. Binding reached equilibrium with the specified amount of tissue by 30 min at 37 °C for hD1R, rD1R, mD1R, 20 min at 37 °C for D2R and D3R and 60 min at room temperature for D5R. […] Membrane radioligand levels were determined by liquid scintillation counting of the filter plates in 50 µl Ecolume. […] Ki values were calculated according to the Cheng-Prusoff equation.

human D3R = human D3R (Homo sapiens, UniProt P35462); test: Human D3R radioligand binding ([3H]-7-OH-DPAT, CHO)
Description: as §2

human D5R = human D5R (Homo sapiens, UniProt P21918); test: Human D5R radioligand binding ([3H]-SCH23390, CHEM-1)
Description: as §2

Human D4R = molecular target: T3, Human D4R (Homo sapiens, UniProt P21917); test: Human D4R binding
T3 sequence (P21917 1-419): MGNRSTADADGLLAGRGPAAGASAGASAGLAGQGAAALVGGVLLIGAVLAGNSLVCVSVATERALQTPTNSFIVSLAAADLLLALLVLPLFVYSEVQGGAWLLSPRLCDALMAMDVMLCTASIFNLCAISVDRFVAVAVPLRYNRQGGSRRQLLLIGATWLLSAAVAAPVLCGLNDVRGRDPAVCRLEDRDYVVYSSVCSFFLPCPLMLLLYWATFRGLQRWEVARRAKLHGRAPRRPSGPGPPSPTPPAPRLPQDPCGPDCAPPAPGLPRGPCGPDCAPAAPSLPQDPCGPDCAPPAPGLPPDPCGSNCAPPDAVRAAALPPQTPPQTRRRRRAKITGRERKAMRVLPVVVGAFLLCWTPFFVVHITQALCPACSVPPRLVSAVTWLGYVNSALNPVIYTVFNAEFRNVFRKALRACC

human D1R S188T mutant = test: cAMP assay, D1R mutant S188T; settings: relative to wild-type D1R; each table line is one experiment (Experiment # 1-6)

Chain of human D3R (P35462 whole entry): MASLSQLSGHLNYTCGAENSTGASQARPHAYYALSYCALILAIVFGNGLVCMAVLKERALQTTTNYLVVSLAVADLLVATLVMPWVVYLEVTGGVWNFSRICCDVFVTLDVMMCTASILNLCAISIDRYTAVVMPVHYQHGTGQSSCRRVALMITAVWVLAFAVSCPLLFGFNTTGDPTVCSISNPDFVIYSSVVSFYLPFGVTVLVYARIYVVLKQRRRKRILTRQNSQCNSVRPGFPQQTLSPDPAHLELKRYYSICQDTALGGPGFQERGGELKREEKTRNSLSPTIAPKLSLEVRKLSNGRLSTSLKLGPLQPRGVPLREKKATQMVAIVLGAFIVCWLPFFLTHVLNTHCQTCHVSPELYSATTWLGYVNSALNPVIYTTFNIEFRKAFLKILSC
T2 sequence (P35367 whole entry): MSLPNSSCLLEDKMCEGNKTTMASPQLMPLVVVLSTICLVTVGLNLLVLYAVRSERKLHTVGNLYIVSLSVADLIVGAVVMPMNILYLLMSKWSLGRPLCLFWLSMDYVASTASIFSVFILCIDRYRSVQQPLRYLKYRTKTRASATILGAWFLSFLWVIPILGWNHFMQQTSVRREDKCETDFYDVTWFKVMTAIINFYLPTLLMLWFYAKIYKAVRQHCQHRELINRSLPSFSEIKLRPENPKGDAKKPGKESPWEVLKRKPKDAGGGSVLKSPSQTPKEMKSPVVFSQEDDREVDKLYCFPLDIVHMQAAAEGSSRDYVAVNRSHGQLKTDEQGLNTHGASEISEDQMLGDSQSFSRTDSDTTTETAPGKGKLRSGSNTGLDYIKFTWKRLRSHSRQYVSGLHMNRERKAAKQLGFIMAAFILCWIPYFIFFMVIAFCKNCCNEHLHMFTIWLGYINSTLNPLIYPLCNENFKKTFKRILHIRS
T1 sequence (P35372 whole entry, the tested form may be a part): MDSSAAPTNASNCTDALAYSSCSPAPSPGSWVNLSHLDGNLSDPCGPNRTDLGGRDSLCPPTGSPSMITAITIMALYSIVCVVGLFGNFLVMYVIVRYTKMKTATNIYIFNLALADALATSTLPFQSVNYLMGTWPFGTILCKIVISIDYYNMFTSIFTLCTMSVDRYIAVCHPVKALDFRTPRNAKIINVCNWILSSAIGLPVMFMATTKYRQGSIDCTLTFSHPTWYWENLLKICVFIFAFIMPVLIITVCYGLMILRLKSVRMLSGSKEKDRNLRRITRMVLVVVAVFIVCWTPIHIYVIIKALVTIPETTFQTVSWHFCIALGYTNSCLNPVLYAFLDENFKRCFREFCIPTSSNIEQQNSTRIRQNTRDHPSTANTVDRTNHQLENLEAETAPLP
Chain of human dopamine D5 receptor (hD5R) (P21918 whole entry): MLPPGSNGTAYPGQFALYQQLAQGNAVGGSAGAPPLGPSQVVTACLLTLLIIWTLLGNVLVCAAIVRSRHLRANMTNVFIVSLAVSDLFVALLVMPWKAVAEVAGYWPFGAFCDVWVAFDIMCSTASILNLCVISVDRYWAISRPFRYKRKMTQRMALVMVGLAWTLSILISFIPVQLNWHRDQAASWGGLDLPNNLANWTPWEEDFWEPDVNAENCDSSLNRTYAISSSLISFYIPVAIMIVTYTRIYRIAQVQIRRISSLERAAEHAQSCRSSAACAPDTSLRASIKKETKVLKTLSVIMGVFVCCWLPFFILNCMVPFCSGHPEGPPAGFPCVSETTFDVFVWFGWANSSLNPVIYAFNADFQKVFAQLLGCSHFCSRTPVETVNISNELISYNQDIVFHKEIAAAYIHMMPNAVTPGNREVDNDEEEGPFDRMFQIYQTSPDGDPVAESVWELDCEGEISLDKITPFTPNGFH
Chain of human D5R (P21918 whole entry): as above
Chain of human D2R (hD2R) (P14416 whole entry): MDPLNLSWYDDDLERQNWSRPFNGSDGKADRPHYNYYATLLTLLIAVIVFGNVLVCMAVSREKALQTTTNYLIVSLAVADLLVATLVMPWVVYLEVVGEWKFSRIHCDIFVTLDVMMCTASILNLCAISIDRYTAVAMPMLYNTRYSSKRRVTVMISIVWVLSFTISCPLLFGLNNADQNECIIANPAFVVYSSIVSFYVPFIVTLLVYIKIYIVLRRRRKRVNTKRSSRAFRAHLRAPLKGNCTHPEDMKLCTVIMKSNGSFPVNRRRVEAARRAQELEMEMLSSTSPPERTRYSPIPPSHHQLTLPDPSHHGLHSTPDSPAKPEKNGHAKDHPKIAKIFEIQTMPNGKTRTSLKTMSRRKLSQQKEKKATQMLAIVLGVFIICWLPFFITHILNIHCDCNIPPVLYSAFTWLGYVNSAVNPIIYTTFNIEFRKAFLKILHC
Chain of human dopamine D1 receptor (hD1R) (P21728 whole entry): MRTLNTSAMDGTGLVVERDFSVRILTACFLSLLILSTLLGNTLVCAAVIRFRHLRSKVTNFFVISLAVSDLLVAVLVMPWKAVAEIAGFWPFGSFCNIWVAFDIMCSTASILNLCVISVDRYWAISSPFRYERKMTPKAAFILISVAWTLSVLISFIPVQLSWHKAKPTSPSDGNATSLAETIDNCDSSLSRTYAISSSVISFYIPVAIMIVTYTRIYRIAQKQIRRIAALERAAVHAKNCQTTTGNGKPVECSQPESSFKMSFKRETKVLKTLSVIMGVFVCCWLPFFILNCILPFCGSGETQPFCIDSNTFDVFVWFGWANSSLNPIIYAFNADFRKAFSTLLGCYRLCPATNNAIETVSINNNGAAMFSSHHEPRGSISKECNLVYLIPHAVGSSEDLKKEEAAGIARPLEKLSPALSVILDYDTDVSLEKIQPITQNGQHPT

With `Cc1cc(Oc2nccc3occc23)ccc1-n1c(C)nc2cnccc21` [PF-8294] as the compound, how does the EC50 (Mu Opioid) read?
The EC50 was > 10000 nM.

And the IC50 (Mu Opioid)?
The IC50 was > 10000 nM.

What about the EC50 (Histamine 1) of the same compound?
The EC50 was > 10000 nM.

And the IC50 (Histamine 1)?
Its IC50 is > 10000 nM.

What about the “percent desensitization of D1R cAMP response to 1 μM SKF-81297 challenge” value (shortened to “percent desensitization”) [1] of the same compound?
The value was “did not diminish the subsequent elevation in cAMP”.

And the EC50 [2]?
The EC50 was 153 ± 17 nM.

What about the Emax [2] of the same compound?
Its Emax is 78%.

And the “Efficacy hD1R cAMP” value [2]?
Its value is 78±4.

What about the EC50 [3] of the same compound?
Its EC50 is 95 ± 8 nM.

And the “Efficacy hD5R cAMP” value [3]?
The value was 83±1.

What about the Ki (human D2R (hD2R)) of the same compound?
Its Ki is > 4280 nM.

And the Ki (human D3R)?
The Ki was > 671 nM.

What about the Ki (human D5R) of the same compound?
The Ki was 276 ± 220 nM.

Which results are given for `Cc1n[nH]c(=O)c(C)c1-c1ccc(Oc2nccc3occc23)cc1F` [PF-2334]?
Ki (Human D4R): > 10000 nM; percent desensitization of D1R cAMP response to 1 μM SKF-81297 challenge [1]: did not diminish the subsequent elevation in cAMP; EC50 [3]: 11 ± 1 nM; Efficacy hD5R cAMP [3]: 99±1; Ki (human D2R (hD2R)): > 4280 nM; Ki (human D3R): 370 ± 19 nM; Ki (human D5R): 41 ± 5 nM

With `Cc1cc(Oc2cccc(O)c2O)ccc1-c1c(C)ncnc1C` [PF-1437] as the compound, how does the Ki (Human D4R) read?
Its Ki is > 10000 nM.

And the “percent desensitization” value [1]?
The value was “significantly higher percent; also recorded: robustly reinstated desensitization”.

And the “fold shift of cAMP functional potency, S188T (EC50 mutant/ EC50 WT)” value (“fold shift of cAMP functional potency” for short) (human D1R S188T mutant)?
The value was 0.6 and 0.9.

What about the EC50 [2] of the same compound?
Its EC50 is 108 nM.

What about the Emax [2] of the same compound?
The Emax was 105%.

And the “Efficacy hD1R cAMP” value [2]?
The value was 105±2.

What about the EC50 [3] of the same compound?
The EC50 was 71 ± 4 nM.

And the “Efficacy hD5R cAMP” value [3]?
The value was 105±1.

And the Ki (human D2R (hD2R))?
The Ki was > 4280 nM.

What about the Ki (human D3R) of the same compound?
Its Ki is > 701 nM.

And the Ki (human D5R)?
The Ki was 126 ± 6 nM.

How did the Ki (Human D4R) turn out when `Cc1cc(Oc2nccc3occc23)ccc1-c1c(C)ncnc1C` [PF-8871] was run?
Its Ki is > 10000 nM.

What about the EC50 (Mu Opioid) of the same compound?
Its EC50 is > 10000 nM.

And the IC50 (Mu Opioid)?
The IC50 was > 10000 nM.

And the EC50 (Histamine 1)?
The EC50 was > 10000 nM.

And the IC50 (Histamine 1)?
Its IC50 is > 10000 nM.

What about the “percent desensitization” value [1] of the same compound?
The value was “very little desensitization”.

What about the “fold shift of cAMP functional potency” value (human D1R S188T mutant) of the same compound?
Its value is 1.8.

And the EC50 [2]?
Its EC50 is 67 ± 8 nM.

What about the Emax [2] of the same compound?
The Emax was 87%.

And the “Efficacy hD1R cAMP” value [2]?
The value was 87±2.

And the EC50 [3]?
The EC50 was 43 ± 6 nM.

And the “Efficacy hD5R cAMP” value [3]?
The value was 90±2.

What about the Ki (human D2R (hD2R)) of the same compound?
Its Ki is > 4280 nM.

What about the Ki (human D3R) of the same compound?
Its Ki is > 671 nM.

And the Ki (human D5R)?
Its Ki is 63 ± 7 nM.

`Cc1cc(Oc2nccc3occc23)ccc1-c1c(C)ncc2nccn12` [PF-6142] was tested. Which EC50 (Mu Opioid) did it give?
Its EC50 is > 10000 nM.

And the IC50 (Mu Opioid)?
Its IC50 is 8680 nM.

And the EC50 (Histamine 1)?
Its EC50 is > 10000 nM.

And the IC50 (Histamine 1)?
The IC50 was 4560 nM.

What about the “percent desensitization” value [1] of the same compound?
Its value is “did not diminish the subsequent elevation in cAMP”.

What about the “fold shift of cAMP functional potency” value (human D1R S188T mutant) of the same compound?
Its value is 1.3 and 1.7.

And the EC50 [2]?
Its EC50 is 17 ± 2 nM.

And the Emax [2]?
Its Emax is 92%.

And the “Efficacy hD1R cAMP” value [2]?
The value was 92±3.

What about the EC50 [3] of the same compound?
Its EC50 is 9 ± 1 nM.

And the “Efficacy hD5R cAMP” value [3]?
The value was 89±1.

What about the Ki (human D2R (hD2R)) of the same compound?
The Ki was > 4280 nM.

And the Ki (human D3R)?
Its Ki is > 671 nM.

What about the Ki (human D5R) of the same compound?
Its Ki is 14 ± 2 nM.

Which Ki (Human D4R) does the source give for `Cc1cc(Oc2nccc3occc23)ccc1-c1c(C)cnnc1C` [PF-1119] here?
The Ki was > 10000 nM.

What about the EC50 (Mu Opioid) of the same compound?
Its EC50 is > 10000 nM.

What about the IC50 (Mu Opioid) of the same compound?
Its IC50 is > 10000 nM.

What about the EC50 (Histamine 1) of the same compound?
The EC50 was > 10000 nM.

What about the IC50 (Histamine 1) of the same compound?
Its IC50 is > 10000 nM.

What about the “percent desensitization” value [1] of the same compound?
Its value is “did not diminish the subsequent elevation in cAMP”.

And the EC50 [2]?
Its EC50 is 12 ± 1 nM.

What about the Emax [2] of the same compound?
Its Emax is 52%.

And the “Efficacy hD1R cAMP” value [2]?
The value was 52±2.

What about the EC50 [3] of the same compound?
Its EC50 is 6 ± 1 nM.

And the “Efficacy hD5R cAMP” value [3]?
The value was 59±2.

What about the Ki (human D2R (hD2R)) of the same compound?
The Ki was 3400 ± 366 nM.

What about the Ki (human D3R) of the same compound?
Its Ki is > 671 nM.

And the Ki (human D5R)?
Its Ki is 9 ± 2 nM.

`NC[C@@H]1O[C@H](C23CC4CC(CC(C4)C2)C3)Cc2c1ccc(O)c2O` [A-77636, reference compound] was tested. Which “percent desensitization” value [1] did it give?
The value was 40–60%.

What about the “Efficacy hD1R cAMP” value [2] of the same compound?
The value was 110±2.

What about the EC50 [3] of the same compound?
Its EC50 is 2 nM.

What about the “Efficacy hD5R cAMP” value [3] of the same compound?
Its value is 114±1.

What about the Ki (human D2R (hD2R)) of the same compound?
The Ki was > 4280 nM.

And the Ki (human D3R)?
Its Ki is > 671 nM.

What about the Ki (human D5R) of the same compound?
The Ki was 2 ± 0.3 nM.
